Publication PMC12406664, “New derivatives of 6-nitrocoumarin-3-thiosemicarbazone exhibit improved antiparasitic activity in the placenta against Trypanosoma cruzi and Toxoplasma gondii” (Antimicrobial Agents and Chemotherapy, 2025)

Tests used:
[1] = test system: T. gondii tachyzoites (strain RH); assay: ESR spin trapping with DMPO in T. gondii; assay type: cell-based, Toxoplasma gondii; settings: compound about 1 mM, menadione 20 µM
Procedure: Each tested hybrid was dissolved in spectroscopy-grade DMSO at an approximate concentration of 1 mM and added to a mixture containing Trypanosoma cruzi (Dm28c strain) or Toxoplasma gondii at a density of 50 × 10⁶ trypomastigotes or tachyzoites per mL, along with DMPO at a final concentration of 250 mM. Menadione (20 µM) was used as a positive control.
All spectra were acquired on the same scale after 15 scans.

[2] = Cyclic voltammetry, reduction potentials in DMSO (HDME, vs. Ag/AgCl); settings: 2.00 V/s
Procedure: Electrochemical studies were carried out on a Metrohm Autolab instrument model PGSTAT204, using dimethyl sulfoxide (DMSO) as the solvent (1 mM solutions), tetrabutylammonium perchlorate (0.1 M TBAP) as the supporting electrolyte, a hanging drop mercury electrode (HDME) as the working electrode, Ag/AgCl (3M KCl) as the reference electrode and a graphite rod as the counter electrode. All measurements were performed after bubbling with nitrogen (N2) for 10 minutes.

[3] = test system: T. gondii (RH strain) in BeWo cells; assay: T. gondii DNA load in infected BeWo cells by real-time qPCR; assay type: cell-based, Toxoplasma gondii; settings: IC50 concentration
Procedure: Cells or HPE were exposed to parasites. […] The following treatment conditions were used in both infection models. […] Untreated cells or HPE served as a negative control, and the compounds’ activity was compared with the reference drugs (NFX and PMN).
Subsequently, cells were exposed to parasites at a 1:1 ratio (cell: parasite) for 24 hours. Finally, the cells were washed with PBS and harvested using trypsin. For the parasitic DNA load in the ex vivo infection model, HPE was incubated in 24-well plates and exposed to parasites at a concentration of 10^5 parasites/mL for 24 hours. Finally, they were washed with PBS and homogenized using the ultraturrax homogenizer OMNI TipTM. Genomic DNA was extracted from BeWo cells or HPE using the Wizard Genomic DNA Purification Kit (Promega, USA) following the manufacturer’s instructions. The resulting DNA was quantified using a μDrop Plate DNA quantification system on the Varioskan Flash multimode reader (Thermo Scientific, USA). For the amplification of human DNA and parasitic DNA, three pairs of primers specific for human GAPDH (hGADPH), T. cruzi satellite DNA, and T. gondii B1 gene DNA were used (Table 7). Each reaction mixture contained 0.5 µL of 10 nM of each primer (Forward and reverse), 1 ng of DNA from T. cruzi samples, 10 ng of DNA from T. gondii samples, 10 µL of SensiFASTTM SYBR Hi-ROX kit (Bioline, Heidelberg, Baden Württemberg, Germany), and ultrapure water (Sigma-Aldrich, St. Louis, MO, USA) for a total of 20 µL.
Amplification was carried out using the CFX96 Touch Deep Well Real-Time PCR Detection System (Biorad, California, USA) with the following cycling program: initial denaturation at 95°C for 3 min, followed by 40 cycles of denaturation at 95°C for 5 s, annealing at 60°C for 30 s, and a dissociation stage ranging from 60°C to 95°C. The relative quantification analysis of the results was expressed as RQ values using the comparative […] (∆∆Ct) ([80]).

[4] = test system: T. cruzi trypomastigotes, Dm28 strain; assay: Resazurin viability assay on free T. cruzi trypomastigotes; settings: Trypanosoma cruzi, 24 h, read-out: Viability T. cruzi (%)
Method in brief: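 Free Dm28 T. cruzi trypomastigotes were exposed to compounds at 100 µM for 24 h, with nifurtimox as positive control and untreated parasites as negative control. Resazurin (3 mM final) with 0.8 mM phenazine was then added for 3 h at 37°C, and fluorescence was read at 560/590 nm.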

[5] = Cytotoxicity on cells (resazurin), BeWo; assay type: cell-based; settings: human, BeWo trophoblast cells
Text: Triton X-100 was used as a positive control, and untreated cells served as a negative control. In addition, the maximum concentration of DMSO was used as a control for the method. […] The obtained values were expressed as IC50([88]).

[6] = test system: T. gondii tachyzoites (strain RH); assay: Intracellular ROS generation (DCF probe) in T. gondii; assay type: cell-based, Toxoplasma gondii; settings: compound at IC50, menadione 20 µM, 40 minutes, vs untreated control
Procedure: ROS detection was performed using the 2′,7′-dichlorodihydrofluorescein diacetate (DCFH2-DA) method ([45]). For the assay, Dm28c trypomastigotes and tachyzoites were seeded in 96-well plates at a density of 10⁶ parasites/mL. In contrast, BeWo cells were seeded at 5 × 10⁴ cells per well, using the previously described culture medium.
After incubation with 20 µM DCFH2-DA for 15 minutes at 37°C, the parasites were centrifuged at 3,500 × g, washed twice with PBS (pH 7.4), and subsequently transferred to Nunc 96-well fluorescence plates. Meanwhile, after 24 hours of incubation at 37°C and 5% CO₂, the culture medium of BeWo cells was replaced, and 20 µM DCFH2-DA solution was added, followed by a 15 minute incubation at 37°C. The cells were then washed with PBS at pH 7.4. As a positive control, 20 µM menadione was used, while the negative control consisted of culture medium without compounds.
Over time, the area under the fluorescence increase curve was determined using Origin 8 software (version 9.2), with normalization relative to the control. The results correspond to three independent experiments' mean ± standard deviation (SD).

[7] = Lipophilicity by reversed-phase TLC (RM); settings: reverse phase-C18, DMSO/phosphate buffer pH 7.4 (70:30 vol/vol), RM = log[(1/Rf) – 1]
Procedure: Lipophilicity was studied by reversed-phase TLC experiments. Precoated TLC plates SIL RP-18W/UV254 were used and eluted with DMSO/physiological serum (70:30, vol/vol). Stock solutions were prepared in pure DMSO (Aldrich) prior to use. The plates were developed in a closed chromatographic tank, dried, and the spots were located under UV light. The Rf values were averaged from three determinations and converted into RM values via the relationship: RM = log [(1/Rf)−1]

[8] = test system: human placental explants (HPE); assay: Histopathology of uninfected HPE exposed to the compounds alone; settings: explants incubated only with the compound, 24 h, IC50 concentration
Procedure: The HPE was fixed in 10% formaldehyde in 0.1 M phosphate buffer (pH 7.3) for 24 h, dehydrated in alcohol, clarified in xylene, embedded in paraffin, and sectioned at 3 µm. Paraffin histological sections were stained with hematoxylin-eosin for routine histological analysis, Picro Sirius red, and trichromic Masson for collagen histochemistry. Sections for the histological analysis were observed under an optical microscope (Leica DM500) and images were captured with a Leica ICC50 W camera ([7], [91]).

C/C(=N\NC(N)=S)c1c(O)c2cc([N+](=O)[O-])ccc2oc1=O [Compound 1, (E)−2-(1-(4-hydroxy-6-nitro-2-oxo-2H-chromen-3-yl)ethylidene)hydrazine-1-carbothioamide]
radical species detected by ESR spin trapping (DMPO) [1]: formation of only two spin adducts
E(pIIa) ([2]; anodic peak IIa): −0.98 V
E(pIcb) ([2]; cathodic peak Icb, nitro reduction): ~−0.99 V
decrease in parasite DNA load ([3]; co-incubation): around 50%
effect on parasite DNA load ([3]; post-infection treatment): no activity against the intracellular form
viability at 100 µM [4]: 85.5 ± 11.3%
CC50 at 24 h [5]: 386.9 ± 1 µM
ROS generation (DCF fluorescence) [6]: increase in ROS levels, albeit lower than the positive control
Lipophilicity (RM) [7]: 0.00
tissue damage caused by the compound itself in HPE [8]: neither compound induced tissue damage
